According to patent publication EP1655298A1, “Novel polymorph forms of candesartan cilexetil” (priority 2004, dated 2006):
Like-named read-outs stand apart in the source and are kept apart here.

What was measured:
Format in all cases: physicochemical
[1] = Comparable solubility in phosphate buffer / physiologically relevant medium; details: for solubility at 0.5 h: read-out: C30 min; for solubility at 1 h: read-out: C60 min
Protocol: In order to prepare a pharmaceutical composition physical properties were measured.
(§1) Physiologically relevant medium is a phosphate buffer at pH=6.76 + Sodiumtauroholat (2,5 mM) + Lecitin (0,5 mM). Surface area of Form 1 was 2.15 - 2,68 m^2/g whereas the surface area of Form 5 was 7,66 m^2/g (BET - isotherm), the hygroscopity as established by DVS - first cycle at 90 % humidity was 0,23% for Form I and 0,44% for Form 5.

Hygroscopicity by DVS = details: DVS - first cycle at 90 % humidity
Protocol: as §1

[2] = Surface area (BET isotherm)
Protocol: as §1

| SMILES | solubility at 0.5 h ([1]; aqueous buffer, Phosphate buffer pH=6.76, 30 min) [µg/mL] | solubility at 1 h ([1]; aqueous buffer, Phosphate buffer pH=6.76, 60 min) [µg/mL] | hygroscopity (Hygroscopicity by DVS; listed as Form I) | C30 min ([1]; Phosphate buffer pH=6.76, 30 min) [µg/mL] | C60 min ([1]; Phosphate buffer pH=6.76, 60 min) [µg/mL] | solubility at 0.5 h ([1]; phosphate buffer + taurocholate + lecithin, Physiologically relevant medium: phosphate buffer pH=6.76 + Sodiumtauroholat (2,5 mM) + Lecitin (0,5 mM), 30 min) [µg/mL] | solubility at 1 h ([1]; phosphate buffer + taurocholate + lecithin, Physiologically relevant medium: phosphate buffer pH=6.76 + Sodiumtauroholat (2,5 mM) + Lecitin (0,5 mM), 60 min) [µg/mL] | hygroscopity (Hygroscopicity by DVS) | Surface area [2] |
| --- | --- | --- | --- | --- | --- | --- | --- | --- | --- |
| CCOc1nc2cccc(C(=O)OC(C)OC(=O)OC3CCCCC3)c2n1Cc1ccc(-c2ccccc2-c2nnn[nH]2)cc1 (stereo not drawn) [Form 1, candesartan cilexetil] | < 0.2 | < 0.2 | 0,23% | – | – | – | – | – | – |
| CCOc1nc2cccc(C(=O)OC(C)OC(=O)OC3CCCCC3)c2n1Cc1ccc(-c2ccccc2-c2nnn[nH]2)cc1 (stereo not drawn) [Form 5, candesartan cilexetil] | – | – | – | <0.2 | <0.2 | 37.1 | 68.5 | 0,44% | 7,66 m^2/g |
